Several values for one entry are separate records, joined by “and”; a condition that tells them apart may be missing. Equal values may be shown once.
How the values were obtained:
[1] = molecular target: T1, calf caudate (Bos taurus, UniProt P20288); type: binding
T1 construct: homogenised calf caudate (8 mg/ml); from tissue; host or cells: calf caudate, homogenised

[2] = test system: β-Adrenergic Receptors; type: binding, rat
[3] = Radioreceptor assay for tricyclic antidepressant drugs: binding of 3H-desipramine to talc in the presence of serum or buffer, with blocking agent
[4] = molecular target: T1, calf caudate; assay: Recovery of haloperidol added to drug-free serum, measured by the 3H-spiperone/calf caudate radioreceptor assay; type: binding; conditions: in the presence of TBEP

T1 sequence (P20288 whole entry): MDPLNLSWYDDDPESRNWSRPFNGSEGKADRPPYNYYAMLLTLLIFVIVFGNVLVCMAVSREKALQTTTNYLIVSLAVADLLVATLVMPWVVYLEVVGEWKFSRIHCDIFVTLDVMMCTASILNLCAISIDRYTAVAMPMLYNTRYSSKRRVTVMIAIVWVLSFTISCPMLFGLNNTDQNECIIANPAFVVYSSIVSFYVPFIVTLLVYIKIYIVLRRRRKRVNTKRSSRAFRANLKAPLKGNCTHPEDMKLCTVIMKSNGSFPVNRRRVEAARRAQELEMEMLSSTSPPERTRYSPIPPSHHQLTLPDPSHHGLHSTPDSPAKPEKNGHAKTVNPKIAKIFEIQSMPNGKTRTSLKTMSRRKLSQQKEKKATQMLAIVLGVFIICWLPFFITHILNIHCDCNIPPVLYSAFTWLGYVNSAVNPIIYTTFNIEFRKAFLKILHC

## CCOP(=O)(OCC)OCC [TEP, triethyl phosphate]
[1]
  % 3H-Spiperone Bound in Buffer: 37.9% and 37.5% and 37.1% and 36.6% and 36.8% and 35.0%
  % 3H-Spiperone Bound in Serum: 27.8% and 28.6% and 29.1% and 30.1% and 30.6% and 29.8%
  % Change in Buffer: 0% and -1% and -2% and -3% and -7%
[2]
  125I-HYP Bound (CPM) in Buffer: 8367 CPM and 7988 CPM and 7972 CPM and 7931 CPM and 7613 CPM
  125I-HYP Bound (CPM) in Serum: 3812 CPM and 4131 CPM and 6011 CPM and 5903 CPM and 5881 CPM
  % Change in Buffer: -1% and -5% and -6% and -10%
[3]; 50 μg/ml TEP
  3H-Desipramine Bound (CPM) in Buffer: 12093 CPM
  3H-Desipramine Bound (CPM) in Serum: 7740 CPM
  % Change in Buffer: -2%
  % Change in Serum: +10%
[3]; 100 μg/ml TEP
  3H-Desipramine Bound (CPM) in Buffer: 11748 CPM
  3H-Desipramine Bound (CPM) in Serum: 8276 CPM
  % Change in Buffer: -5%
  % Change in Serum: +18%
[3]; 500 μg/ml TEP
  3H-Desipramine Bound (CPM) in Buffer: 13024 CPM
  3H-Desipramine Bound (CPM) in Serum: 9204 CPM
  % Change in Buffer: +6%
  % Change in Serum: +31%
[3]; 750 μg/ml TEP
  3H-Desipramine Bound (CPM) in Buffer: 11507 CPM
  3H-Desipramine Bound (CPM) in Serum: 9198 CPM
  % Change in Buffer: -6%
  % Change in Serum: +30%
[3]; 1000 μg/ml TEP
  3H-Desipramine Bound (CPM) in Buffer: 11925 CPM
  3H-Desipramine Bound (CPM) in Serum: 9745 CPM
  % Change in Buffer: -3%
  % Change in Serum: +39%
[3]; 1250 μg/ml TEP
  3H-Desipramine Bound (CPM) in Buffer: 12362 CPM
  3H-Desipramine Bound (CPM) in Serum: 10016 CPM
  % Change in Buffer: 0%
  % Change in Serum: +43%

## CCCCOCCOP(=O)(OCCOCCCC)OCCOCCCC [TBEP, tris(butoxyethyl) phosphate]
[1]
  % 3H-Spiperone Bound in Buffer: 35.0% and 35.3% and 35.6% and 32.5% and 32.4% and 31.6% and 27.7%
  % 3H-Spiperone Bound in Serum: 23.0% and 26.2% and 27.8% and 29.1% and 27.2% and 26.1% and 24.3%
  % of 3H-Spiperone Bound, TBEP present: 31.9% and 32.2% and 31.5% and 33.8% and 33.5% and 32.8% and 31.8%
  % of 3H-Spiperone Bound, TBEP present, mean (X): 32.4%
  between sample variability (CV) in 3H-spiperone binding: reduced
[4]
  variability (CV) in the recovery of added haloperidol: reduced
[2]
  125I-HYP Bound (CPM) in Buffer: 8513 CPM and 8226 CPM and 8729 CPM and 8510 CPM and 8630 CPM and 8412 CPM
